≈ marks a conversion by molar mass, not a printed value.
Legend:
Candida albicans = test: MIC, antifungal test; assay type: cell-based; parameters: key to Minimum inhibitory concentration (MIC): –: no inhibition observed under test conditions
Experimental: (§1) Compounds were tested for their antimicrobial activity against […] fungi (Candida albicans, Mucor hiemails, Pichia anomala, Rhodotorula glutinis and Schizosaccharomyces pombe), four different Gram-positive bacteria (Bacillus subtilis, Micrococcus luteus, Mycobacterium smegmatis and Staphylococcus aureus), and three Gram-negative bacteria (Chromobacterium violaceum, Escherichia coli and Pseudomonas aeruginosa), using oxytetracycline as a positive control against Gram-positive and Gram-negative bacteria, while nystatin was used as an antifungal positive control. Besides, cytotoxicities of the compounds against seven mammalian cell lines (human endocervical adenocarcinoma KB 3.1, breast cancer MCF-7, lung cancer A549, ovary cancer SK-OV-3, prostate cancer PC-3, squamous cancer A431, and mouse fibroblasts L929) were determined by the microculture tetrazolium test (MTT) method, using epothilon B as the positive control. Both bioactivity assays were performed following our standard protocols.

Mucor hiemalis = test: MIC, antifungal test; assay type: cell-based; parameters: key to Minimum inhibitory concentration (MIC): –: no inhibition observed under test conditions
Experimental: as §1

Pichia anomala = test: MIC, antifungal test; assay type: cell-based; parameters: key to Minimum inhibitory concentration (MIC): –: no inhibition observed under test conditions
Experimental: as §1

Rhodotorula glutinis = test: MIC, antifungal test; assay type: cell-based; parameters: key to Minimum inhibitory concentration (MIC): –: no inhibition observed under test conditions
Experimental: as §1

[1] = test system: Schizosaccharomyces pombe; test: MIC, antifungal test; assay type: cell-based; parameters: key to Minimum inhibitory concentration (MIC): –: no inhibition observed under test conditions
Experimental: as §1

Bacillus subtilis = test: MIC, antibacterial test; assay type: cell-based; conditions: read-out: Minimum inhibitory concentration (MIC)
Experimental: as §1

Micrococcus luteus = test: MIC, antibacterial test; assay type: cell-based; conditions: read-out: Minimum inhibitory concentration (MIC)
Experimental: as §1

Staphylococcus aureus = test: MIC, antibacterial test; assay type: cell-based; conditions: read-out: Minimum inhibitory concentration (MIC)
Experimental: as §1

Mycobacterium smegmatis = test: MIC, antibacterial test; assay type: cell-based; parameters: key: –: no inhibition observed under test conditions
Experimental: as §1

[2] = test system: Chromobacterium violaceum; test: MIC, antibacterial test; assay type: cell-based; parameters: key to Minimum inhibitory concentration (MIC): –: no inhibition observed under test conditions; conditions: read-out: Minimum inhibitory concentration (MIC)
Experimental: as §1

Escherichia coli = test: MIC, antibacterial test; assay type: cell-based; parameters: key to Minimum inhibitory concentration (MIC): –: no inhibition observed under test conditions
Experimental: as §1

Pseudomonas aeruginosa = test: MIC, antibacterial test; assay type: cell-based; parameters: key to Minimum inhibitory concentration (MIC): –: no inhibition observed under test conditions
Experimental: as §1

Cytotoxicity, MTT method = test: Cytotoxicity, MTT method
Experimental: as §1

[3] = test system: KB 3.1, L929, A549, SK-OV-3, PC-3, A431, and MCF-7 mammalian cell lines; test: Cytotoxicity, summary over all tested cell lines; assay type: cell-based; conditions: seven mammalian cell lines; read-out: IC50 values, range over all tested cell lines
Experimental: as §1

NCI-H187 and Vero = test system: NCI-H187 and Vero; parameters: method as in PMID 29677644; conditions: cited from earlier work
[4] = test system: Al. brassicicola, Co. gloeosporioides, Co. truncatum, Cu. lunata and Py. grisea; parameters: method as in PMID 29677644; conditions: cited from earlier work
[5] = test system: A431 human squamous cancer cells; test: Cytotoxicity, MTT method; conditions: read-out: Cytotoxicity, half maximal inhibitory concentration (IC50); A431, MTT
Experimental: as §1

[6] = test system: MCF-7 human breast cancer cells; test: Cytotoxicity, MTT method; conditions: read-out: Cytotoxicity, half maximal inhibitory concentration (IC50); MCF-7, MTT
Experimental: as §1

[7] = test system: human endocervical adenocarcinoma KB 3.1; test: Cytotoxicity, MTT method; conditions: read-out: Cytotoxicity, half maximal inhibitory concentration (IC50); KB 3.1, MTT
Experimental: as §1

lung cancer A549 = test: Cytotoxicity, MTT method; conditions: read-out: Cytotoxicity, half maximal inhibitory concentration (IC50); A549, MTT
Experimental: as §1

mouse fibroblasts L929 = test: Cytotoxicity, MTT method; conditions: read-out: Cytotoxicity, half maximal inhibitory concentration (IC50); L929, MTT
Experimental: as §1

ovary cancer SK-OV-3 = test: Cytotoxicity, MTT method; conditions: read-out: Cytotoxicity, half maximal inhibitory concentration (IC50); SK-OV-3, MTT
Experimental: as §1

prostate cancer PC-3 = test: Cytotoxicity, MTT method; conditions: read-out: Cytotoxicity, half maximal inhibitory concentration (IC50); PC-3, MTT
Experimental: as §1

[8] = test system: PC-3 prostate cancer cells; parameters: method as in PMID 31433962; conditions: cited from earlier work

Question: Which results are given for `COC(=O)[C@]12Oc3c(c(O)cc4c3[C@@H]3C=C[C@]5(C4)C(=C(O)c4c(O)cc(C)cc4[C@@H]5O)C3=O)C(=O)C1=C(O)CC[C@@H]2O` [Compound 8, Xanthoquinodin B4]?
Answer: Minimum inhibitory concentration (MIC) (Candida albicans): –; Minimum inhibitory concentration (MIC) (Mucor hiemalis): –; Minimum inhibitory concentration (MIC) (Pichia anomala): –; Minimum inhibitory concentration (MIC) (Rhodotorula glutinis): –; Minimum inhibitory concentration (MIC) [1]: –; MIC (Bacillus subtilis): 2.1 µg/mL (≈ 3.66 µM); MIC (Micrococcus luteus): 8.3 µg/mL (≈ 14.4 µM); MIC (Staphylococcus aureus): 8.3 µg/mL (≈ 14.4 µM); Minimum inhibitory concentration (MIC) (Mycobacterium smegmatis): –; MIC [2]: 66.7 µg/mL (≈ 116 µM); Minimum inhibitory concentration (MIC) (Escherichia coli): –; Minimum inhibitory concentration (MIC) (Pseudomonas aeruginosa): –; IC50 (Cytotoxicity, MTT method; human, A431 squamous cancer cells): 160 nM; IC50 (Cytotoxicity, MTT method; human, A549 lung cancer cells): 1220 nM; IC50 (Cytotoxicity, MTT method; human, KB 3.1 endocervical adenocarcinoma cells): 1060 nM; IC50 (Cytotoxicity, MTT method; human, MCF-7 breast cancer cells): 100 nM; IC50 (Cytotoxicity, MTT method; human, PC-3 prostate cancer cells): 3140 nM; IC50 (Cytotoxicity, MTT method; human, SK-OV-3 ovary cancer cells): 470 nM; IC50 (Cytotoxicity, MTT method; mouse, L929 fibroblasts): 4700 nM; IC50 [3]: 100 to 4700 nM; Cytotoxicity compared with other xanthoquinodins (in words) (NCI-H187 and Vero): stronger cytotoxicity; Antifungal effects (in words) [4]: significant antifungal effects

Question: Which IC50 [5] does the source give for `C/C(=C\c1csc(C)n1)[C@@H]1C[C@@H]2O[C@]2(C)CCC[C@H](C)[C@H](O)[C@@H](C)C(=O)C(C)(C)[C@@H](O)CC(=O)O1` [epothilon B, reference compound] here?
Answer: 0.05 nM

Question: What about the IC50 [6] of the same compound?
Answer: 0.03 nM

Question: What about the IC50 [7] of the same compound?
Answer: 0.03 nM

Question: And the IC50 (lung cancer A549)?
Answer: 0.09 nM

Question: What about the IC50 (mouse fibroblasts L929) of the same compound?
Answer: 0.51 nM

Question: What about the IC50 (ovary cancer SK-OV-3) of the same compound?
Answer: 0.09 nM

Question: And the IC50 (prostate cancer PC-3)?
Answer: 0.07 nM

Question: For xanthoquinodin JBIR-99, which “Antiproliferative activity (in words)” value [8] is on record?
Answer: high selective antiproliferative activity

Reference: PMC7712541, “Seven New Cytotoxic and Antimicrobial Xanthoquinodins from Jugulospora vestita” (Journal of Fungi, 2020)
